Reference: US20240158446A1, “CYCLIC COMPOUND HAVING SELECTIVE INHIBITORY ACTION ON KRAS OVER HRAS AND NRAS” (CHUGAI SEIYAKU KABUSHIKI KAISHA, priority 2021, published 2024)
Where two headings read alike, the source gives them in different places. Where a SMILES comes first, the peptide text is derived from it. Bridges are numbered along the chain shown (N, C = ends). [ ]: non-standard residue; d: D form. The star is where a group is joined. hPhe(3-Cl-4-CF3) = N[C@@H](CCc1ccc(C(F)(F)F)c(Cl)c1)C(=O)O; NPrPhe(4-CF3) = CCCN[C@@H](Cc1ccc(C(F)(F)F)cc1)C(=O)O; Pro(4-spirocPr) = O=C(O)[C@@H]1CC2(CC2)CN1; NMeGly(cPent) = CN[C@H](C(=O)O)C1CCCC1; Pro(4,4-Me2) = CC1(C)CN[C@H](C(=O)O)C1; Gly(cBu) = N[C@H](C(=O)O)C1CCC1; NMeD = CN[C@@H](CC(=O)O)C(=O)O; NMeL = CN[C@@H](CC(C)C)C(=O)O; Morpholide = C1CN(*)CCO1; NMeA = CN[C@@H](C)C(=O)O; Ac5c = NC1(C(=O)O)CCCC1; Aze = O=C(O)[C@@H]1CCN1; NEtG = CCNCC(=O)O; Sar = CNCC(=O)O

Legend:
[1] = target: GDP-bound KRAS wild-type protein (Homo sapiens, UniProt P01116); assay: Binding to KRAS by surface plasmon resonance (SPR), Single Cycle Kinetics; settings: GDP-bound KRAS wild-type protein, read-out: KRAS KD
[2] = target: GDP-bound NRAS wild-type protein (Homo sapiens, UniProt P01111); assay: Binding to NRAS by surface plasmon resonance (SPR), Single Cycle Kinetics; settings: for NRAS/KRAS (ratio of KD value with respect to NRAS to KD value with respect to KRAS) / NRAS/KRAS (ratio of KD value for NRAS to KD value for KRAS): SPR, GDP-bound NRAS wild-type protein vs GDP-bound KRAS wild-type protein
[3] = target: GDP-bound HRAS wild-type protein (Homo sapiens, UniProt P01112); assay: Binding to HRAS by surface plasmon resonance (SPR), Single Cycle Kinetics; settings: for HRAS/KRAS (ratio of KD value with respect to HRAS to KD value with respect to KRAS) / HRAS/KRAS (ratio of KD value for HRAS to KD value for KRAS): SPR, GDP-bound HRAS wild-type protein vs GDP-bound KRAS wild-type protein
[4] = SPR Single Cycle Kinetics, 1:1 binding model
[5] = SPR, Single Cycle Kinetics, 1:1 binding model

Chain of GDP-bound NRAS wild-type protein (P01111 whole entry): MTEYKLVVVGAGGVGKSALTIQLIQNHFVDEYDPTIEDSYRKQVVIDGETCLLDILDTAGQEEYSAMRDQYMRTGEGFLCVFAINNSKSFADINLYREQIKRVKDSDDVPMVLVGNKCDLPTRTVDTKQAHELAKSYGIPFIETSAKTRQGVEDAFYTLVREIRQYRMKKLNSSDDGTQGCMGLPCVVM
Chain of GDP-bound KRAS wild-type protein (P01116 whole entry): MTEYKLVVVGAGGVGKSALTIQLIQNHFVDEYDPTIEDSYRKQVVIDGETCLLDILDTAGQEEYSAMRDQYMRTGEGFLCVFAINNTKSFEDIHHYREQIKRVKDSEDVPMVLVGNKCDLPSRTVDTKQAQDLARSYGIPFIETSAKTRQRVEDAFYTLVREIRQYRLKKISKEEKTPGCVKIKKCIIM
Chain of GDP-bound HRAS wild-type protein (P01112 whole entry): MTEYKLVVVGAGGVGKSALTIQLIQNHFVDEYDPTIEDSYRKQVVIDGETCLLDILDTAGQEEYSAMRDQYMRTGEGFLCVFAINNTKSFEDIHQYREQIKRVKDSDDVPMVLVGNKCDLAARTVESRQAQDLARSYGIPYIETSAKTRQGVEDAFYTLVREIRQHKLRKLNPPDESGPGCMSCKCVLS

Compound	Kd [1, 4]	Kd ([1]; SPR, Single Cycle Kinetics)	NRAS/KRAS (ratio of KD value for NRAS to KD value for KRAS) [2]	HRAS/KRAS (ratio of KD value for HRAS to KD value for KRAS) [3]	also measured
CCCN1C(=O)CN(C)C(=O)CNC(=O)[C@H]([C@@H](C)CC)NC(=O)[C@H](CC(C)C)N(C)C(=O)C[C@@H](C(=O)N2CCOCC2)N(C)C(=O)[C@H](C2CCCC2)N(C)C(=O)C2(CCCC2)NC(=O)[C@@H]2CC(C)(C)CN2C(=O)[C@H](CCc2ccc(C(F)(F)F)c(Cl)c2)NC(=O)CN(C)C(=O)[C@@H]1Cc1ccc(C(F)(F)F)cc1 [PP0448] ([NMeL]IG[Sar][NPrPhe(4-CF3)][Sar][hPhe(3-Cl-4-CF3)][Pro(4,4-Me2)][Ac5c][NMeGly(cPent)][NMeD]-Morpholide; lactam N-11)	0.15 nM	–	–	–	NRAS/KRAS (ratio of KD value with respect to NRAS to KD value with respect to KRAS) [2]: B (a compound having 3 or more and less than 10 is denoted as B); HRAS/KRAS (ratio of KD value with respect to HRAS to KD value with respect to KRAS) [3]: C (A compound having a KD ratio of 0.1 or more and less than 3 is denoted as C)
CCO[C@@H]1C[C@H]2C(=O)NC3(CC(C)(C)C3)C(=O)N(C)[C@@H](C(CC)CC)C(=O)N(C)[C@H](C(=O)N(C)C)CC(=O)N(C)[C@H]3CCCCC/C=C/c4ccc(cc4)C[C@@H](C(=O)N(C)CC(=O)N[C@@H](CCc4ccc(Cl)c(Cl)c4)C(=O)N2C1)N1CC/C=C\C[C@@H](C1=O)N(C)C(=O)CN(C)C(=O)[C@H]([C@@H](C)CC)NC3=O [PP3050]	–	0.29 nM	AA (a compound having 20 or more is denoted as AA)	A (a compound having 10 or more and less than 20 is denoted as A)	–
CCO[C@@H]1C[C@H]2C(=O)NC3(CCC3)C(=O)N(C)[C@@H](C3CCCC3)C(=O)N(C)[C@H](C(=O)N(C)CC)CC(=O)N(C)[C@@H](CC(C)C)C(=O)N[C@@H]([C@@H](C)CC)C(=O)N(C)CC(=O)N(C)[C@H]3C/C=C\CCN(C3=O)[C@@H](Cc3ccc(C(F)(F)F)cc3)C(=O)N(C)CC(=O)N[C@@H](CCc3ccc(C(F)(F)F)c(OC)c3)C(=O)N2C1 [PP2846]	0.091 nM	–	–	–	NRAS/KRAS (ratio of KD value with respect to GDP-bound NRAS wild-type protein to KD value with respect to KRAS) ([2]; SPR KD ratio NRAS/KRAS, class symbols): AA (a compound having 20 or more is denoted as AA); HRAS/KRAS (ratio of KD value with respect to GDP-bound HRAS wild-type protein to KD value with respect to KRAS) ([3]; SPR KD ratio HRAS/KRAS, class symbols): A (a compound having 10 or more and less than 20 is denoted as A)
CCCN1C(=O)[C@@H]2CCN2C(=O)[C@H](C)N(C)C(=O)[C@H](C2CCC2)NC(=O)[C@H](CC(C)C)N(C)C(=O)C[C@@H](C(=O)N2CCOCC2)N(C)C(=O)[C@H](C2CCCC2)N(C)C(=O)C2(CCCC2)NC(=O)[C@@H]2CCCN2C(=O)[C@H](CCc2ccc(C(F)(F)F)c(Cl)c2)NC(=O)CN(C)C(=O)[C@@H]1Cc1ccc(C(F)(F)F)cc1 [PP0271] ([NMeL][Gly(cBu)][NMeA][Aze][NPrPhe(4-CF3)][Sar][hPhe(3-Cl-4-CF3)]P[Ac5c][NMeGly(cPent)][NMeD]-Morpholide; lactam N-11)	0.22 nM	–	C (A compound having a KD ratio of 0.1 or more and less than 3 is denoted as C)	B (a compound having 3 or more and less than 10 is denoted as B)	–
CC[C@H](C)[C@@H]1NC(=O)[C@H](CC2CC2)N(C)C(=O)C[C@@H](C(=O)N(C)C)N(C)C(=O)[C@H](C2CCCC2)N(C)C(=O)C2(CC(C)(C)C2)NC(=O)[C@@H]2C[C@@H](C(F)(F)F)CN2C(=O)[C@H](CCc2cc(F)c(C(F)(F)F)c(F)c2)NC(=O)CN(C)C(=O)[C@H](Cc2ccc(F)cc2)N2CC/C=C\C[C@@H](C2=O)N(C)C(=O)CN(C)C1=O [PP1507]	–	–	–	–	Kd [1, 5]: 0.17 nM; NRAS/KRAS (ratio of KD value for NRAS to KD value for KRAS) ([2]; KD ratio class): A (a compound having 10 or more and less than 20 is denoted as A); HRAS/KRAS (ratio of KD value for HRAS to KD value for KRAS) ([3]; KD ratio class): A (a compound having 10 or more and less than 20 is denoted as A)
CC[C@H](C)[C@@H]1NC(=O)[C@H](CC(C)C)NC(=O)C[C@@H](C(=O)N2CCOCC2)N(C)C(=O)[C@H](C2CCCC2)N(C)C(=O)C2(CCCC2)NC(=O)[C@@H]2CCCN2C(=O)[C@H](CCc2cc(F)c(C(F)(F)F)c(F)c2)NC(=O)CN(C)C(=O)[C@H](Cc2ccc(C(F)(F)F)cc2)N2CCCC[C@@H](C2=O)N(C)C(=O)CN(C)C1=O [PP0590]	0.27 nM	–	–	–	NRAS/KRAS (ratio of KD value with respect to NRAS to KD value with respect to KRAS) [2]: C (A compound having a KD ratio of 0.1 or more and less than 3 is denoted as C); HRAS/KRAS (ratio of KD value with respect to HRAS to KD value with respect to KRAS) [3]: B (a compound having 3 or more and less than 10 is denoted as B)
CC[C@H](C)[C@@H]1NC(=O)[C@H](CC2CC2)N(C)C(=O)C[C@@H](C(=O)N(C)C)N(C)C(=O)[C@H](C2CCCC2)N(C)C(=O)C2(CCCC2)NC(=O)[C@@H]2C[C@H](C)CN2C(=O)[C@H](CCc2cc(F)c(C(F)(F)F)c(F)c2)NC(=O)CN(C)C(=O)[C@H](Cc2ccc(C(F)(F)F)cc2)N2CC/C=C\C[C@@H](C2=O)N(C)C(=O)CN(C)C1=O [PP1511, (2S,8S,12S,14S,20S,23S,27S,30S,36S,38Z)-20-cyclopentyl-27-(cyclopropylmethyl)-8-[2-[3,5-difluoro-4-(trifluoromethyl)phenyl]ethyl]-N,N,4,12,19,22,26,32,35-nonamethyl-30-[(1S)-1-methylpropyl]-3,6,9,15,18,21,25,28,31,34,42-undecaoxo-2-[[4-(trifluoromethyl)phenyl]methyl]spiro[1,4,7,10,16,19,22,26,29,32,35-undecazatricyclo[34.5.1.0^10,14]dotetracont-38-ene-17,1′-cyclopentane]-23-carboxamide]	–	–	–	–	Kd [1, 5]: 0.099 nM; NRAS/KRAS (ratio of KD value for NRAS to KD value for KRAS) ([2]; KD ratio class): AA (a compound having 20 or more is denoted as AA); HRAS/KRAS (ratio of KD value for HRAS to KD value for KRAS) ([3]; KD ratio class): A (a compound having 10 or more and less than 20 is denoted as A)
CCO[C@@H]1C[C@H]2C(=O)NC3(CC(C)(C)C3)C(=O)N(C)[C@@H](C3CCCC3)C(=O)N(C)[C@H](C(=O)N(C)CC)CC(=O)N(C)[C@@H](C3CCC3)C(=O)N[C@@H]([C@@H](C)CC)C(=O)N(C)CC(=O)N(C)[C@H]3C/C=C\CCN(C3=O)[C@@H](Cc3ccc(C(F)(F)F)cc3)C(=O)N(C)CC(=O)N[C@@H](CCc3cc(F)c(C(F)(F)F)c(F)c3)C(=O)N2C1 [PP2038]	–	0.16 nM	A (a compound having 10 or more and less than 20 is denoted as A)	A (a compound having 10 or more and less than 20 is denoted as A)	–
CC[C@H](C)[C@@H]1NC(=O)[C@H](CC(C)C)N(C)C(=O)C[C@@H](C(=O)N2CCOCC2)N(C)C(=O)[C@H](C2CCCC2)N(C)C(=O)C2(CCC2)NC(=O)[C@@H]2C[C@@H](OCC3CCCC3)CN2C(=O)[C@H](CCc2cc(F)c(C(F)(F)F)c(F)c2)NC(=O)CN(C)C(=O)[C@H](Cc2ccc(C(F)(F)F)cc2)N2CCCC[C@@H](C2=O)N(C)C(=O)CN(C)C1=O [PP1001]	–	0.1 nM	B (a compound having 3 or more and less than 10 is denoted as B)	B (a compound having 3 or more and less than 10 is denoted as B)	–
CCCN1C(=O)CN(C)C(=O)CN(CC)C(=O)[C@H]([C@@H](C)CC)NC(=O)[C@H](CC(C)C)N(C)C(=O)C[C@@H](C(=O)N2CCOCC2)N(C)C(=O)[C@H](C2CCCC2)N(C)C(=O)C2(CCCC2)NC(=O)[C@@H]2CC3(CC3)CN2C(=O)[C@H](CCc2ccc(C(F)(F)F)c(Cl)c2)NC(=O)CN(C)C(=O)[C@@H]1Cc1ccc(C(F)(F)F)cc1 [PP0295] ([NMeL]I[NEtG][Sar][NPrPhe(4-CF3)][Sar][hPhe(3-Cl-4-CF3)][Pro(4-spirocPr)][Ac5c][NMeGly(cPent)][NMeD]-Morpholide; lactam N-11)	0.52 nM	–	B (a compound having 3 or more and less than 10 is denoted as B)	C (A compound having a KD ratio of 0.1 or more and less than 3 is denoted as C)	–
